Results reported in patent US20230365571A1, “COMPOUNDS AND COMPOSITIONS AS Sppl2a INHIBITORS” (Novartis AG, priority 2020, published 2023).

Assays:
human SPPL2a [1] = target: T1, human SPPL2a (Homo sapiens, UniProt Q8TCT8); assay: Sppl2a TL (translocation) imaging assay in U-2 OS cells; type: cell-based; parameters: expressed in transfected cells; details: U-2 OS cells expressing human SPPL2a and EGFP-TNFα(aa1-76) NTF substrate; 24 h
T1 sequence (Q8TCT8 26-520): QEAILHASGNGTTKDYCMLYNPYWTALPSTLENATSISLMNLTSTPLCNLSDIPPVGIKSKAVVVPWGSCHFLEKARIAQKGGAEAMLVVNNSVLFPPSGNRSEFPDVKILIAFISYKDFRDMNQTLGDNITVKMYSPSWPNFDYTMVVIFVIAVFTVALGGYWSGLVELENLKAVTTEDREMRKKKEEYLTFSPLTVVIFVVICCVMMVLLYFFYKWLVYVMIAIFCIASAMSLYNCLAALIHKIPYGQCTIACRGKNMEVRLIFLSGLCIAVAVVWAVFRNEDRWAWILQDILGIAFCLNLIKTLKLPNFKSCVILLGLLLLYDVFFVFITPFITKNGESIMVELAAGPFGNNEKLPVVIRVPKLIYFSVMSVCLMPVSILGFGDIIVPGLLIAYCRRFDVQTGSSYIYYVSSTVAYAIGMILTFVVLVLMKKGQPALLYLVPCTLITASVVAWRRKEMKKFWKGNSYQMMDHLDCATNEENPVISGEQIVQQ
Protocol: SPPL2a, TL in U-2 OS Cells. Stable U-2 OS cell lines expressing human SPPL2a constitutively and a EGFP-labeled TNFα(aa1-76) NTF substrate under a doxycycline-regulated promoter were used for the imaging assays. Cells were seeded at 3000 cells/30 μL/384-well in DMEM/GlutaMax™-I (Invitrogen) supplemented with tetracycline-free 10% FBS (Amimed) and incubated at 37° C., 5% CO2 for 3-4 h. Subsequently, 3.3 μL of inhibitors, prediluted in doxycycline-containing medium for 11-point concentration-response curves, were added to each well using a CyBi well liquid handling device (Cybio AG, Jena, Germany) to result in final inhibitor concentrations ranging from 100 μM to 1 nM (final DMSO concentration 0.9% (v/v)) and 5 μg/mL doxycycline). The cells were incubated with inhibitor at 37° C., 5% CO2 for 24 h. Thereafter cell were fixed in 4% PFA/PBS and in parallel, nuclei were stained with Hoechst (Invitrogen) 1:5000 in PBS for 30 min. The plates were imaged using a Cellomics ArrayScan VTI HCS reader with 10×/0.3NA objective (Thermo Fisher Scientific, USA). Six images per well were acquired. Images for the EGFP signal (Ex395, Em509) and the Hoechst nuclear dye (Ex350, Em425) were acquired simultaneously with image analysis using the “Nuclear Translocation” assay algorithm of the Cellomics ArrayScan software. Nuclei were detected based on the Hoechst staining, the nuclear mask was transferred to the EGFP channel, and a 4 pixel wide cytoplasm ring region was defined around the nucleus. The intensity of the EGFP signal was measured both in the nuclear and in the cytoplasm ring region of each individual cell (in general 800-1000 individual cells were analyzed per well), and the difference of the average nuclear versus average cytoplasmic intensity of the EGFP signal was calculated (“CircRingAvgIntenDiffCh2”=“CircAvgIntenCh2”−“RingAvgIntenCh2”). Additionally the number of cells were acquired (feature termed “ValidCellCount”) and used to calculate cell toxicity (CC50). Percent inhibition was calculated relative to the positive (0.5 μM LY-411,575=100% inhibition) and negative (DMSO=0% inhibition) controls. The IC50 value was calculated from the plot of percentage of inhibition vs inhibitor concentration using nonlinear regression analysis software, e.g., Origin (OriginLab Corp.).

human SPPL2a [2] = target: T1, human SPPL2a; assay: Sppl2a RGA (reporter gene assay) in HEK293 cells; type: cell-based; parameters: expressed in transfected cells; host or cells: HEK293 (transient); details: NT-TNF-VP16-Gal4 substrate, Gal4-luciferase reporter, 24 h
From the text: Sppl2a RGA (Reporter Gene Assay):
Sppl2a is an intramembrane aspartyl protease with similarities to presenilin, the active subunit of the γ-secretase complex. The assay is based on the coupling of the proteolytic degradation of a membrane bound synthetic substrate (VP16-Gal4 fusion protein with the N-terminal domain of TNF alpha), which migrates to the nucleus upon cleavage, with the Gal4 driven expression of luciferase. Inhibition of Sppl2a results in a reduction of nuclear VP16-Gal4 activator and therefore in a reduction of the production of luciferase. The luciferase dependent-luminescence is plotted against the concentrations of compound to generate a dose response curve, which allows the calculation of the IC50 value.
DNA vectors encoding human Sppl2a, NT-TNF-VP16-Gal4 and a Gal4-luciferase reporter were transiently transfected in HEK293 cells. In a typical experiment 5 μg plasmid for SPPL2a, 10 μg plasmid encoding the reporter Gal4-luciferase and 20 μg plasmid encoding the substrate NT-TF-VP16-Gal4 were mixed together. The DNA mixture was combined with 107 μl FuGENE® (Promega), 735 μl Opti-MEM® (Life Technologies) and incubated for 5 minutes at RT. To this mixture 20 mL of concentrated HEK293 cells were added and thoroughly mixed. The cell suspension was distributed to a white solid 384 well plate. Within 5 hours, 50 nl of compound in DMSO was stamped into the wells via pintool. The plate was incubated for 24 h at 37° C., 5% CO2 in a humidified incubator, before the addition of 25 μl Bright Glo. After incubation at RT for 5 min, the plate was transferred to a luminometer and the luminescence was measured. The IC50 was determined by plotting compound concentration vs. normalized luminescence values.

IC50 (human SPPL2a [1]) [µM] | IC50 (human SPPL2a [2]) [µM] | Compound
0.45 | 0.18 | Cc1cnoc1C(=O)NC[C@H](C(=O)N[C@@H]1C(=O)N2CCCN2C(=O)c2ccccc21)C(F)(F)F [Example 2, N—((R)-2-(((S)-5,11-dioxo-2,3,10,11-tetrahydro-1H,5H-benzo[d]pyrazolo[1,2-a][1,2]diazepin-10-yl)carbamoyl)-3,3,3-trifluoropropyl)-4-methylisoxazole-5-carboxamide]
0.011 | 0.008 | CC[C@H](CNC(=O)c1sc(-c2ccc(C(F)(F)F)nc2)nc1Cl)C(=O)N[C@@H]1C(=O)N2CCCN2Cc2ccccc21 [Example 15, 4-Chloro-N-((R)-2-(((S)-11-oxo-2,3,10,11-tetrahydro-1H,5H-benzo[d]pyrazolo [1,2-a][1,2]diazepin-10-yl)carbamoyl)butyl)-2-(6-(trifluoromethyl)pyridin-3-yl)thiazole-5-carboxamide]
0.012 | 0.003 | CC[C@H](CNC(=O)c1sc(-c2ccc(C(F)(F)F)nc2)nc1C)C(=O)N[C@@H]1C(=O)N2CCCN2Cc2ccccc21 [Example 18, 4-Methyl-N-((R)-2-(((S)-11-oxo-2,3,10,11-tetrahydro-1H,5H-benzo[d]pyrazolo [1,2-a][1,2]diazepin-10-yl)carbamoyl)butyl)-2-(6-(trifluoromethyl)pyridin-3-yl)thiazole-5-carboxamide]
0.012 | 0.22 | CC[C@H](CNC(=O)c1sc(-c2cc(C)no2)nc1C)C(=O)N[C@@H]1C(=O)N2CCCN2Cc2ccccc21 [Example 20, 4-Methyl-2-(3-methylisoxazol-5-yl)-N-((R)-2-(((S)-11-oxo-2,3,10,11-tetrahydro-1H,5H-benzo[d]pyrazolo [1,2-a][1,2]diazepin-10-yl)carbamoyl)butyl) thiazole-5-carboxamide]
0.028 | 0.088 | CC[C@H](CNC(=O)c1sc(C2=CCCC2)nc1Cl)C(=O)N[C@@H]1C(=O)N2CCCN2C(=O)c2ccccc21 [Example 28, 4-Chloro-2-(cyclopent-1-en-1-yl)-N-((R)-2-(((S)-5,11-dioxo-2,3,10,11-tetrahydro-1H,5H-benzo[d]pyrazolo [1,2-a][1,2]diazepin-10-yl)carbamoyl)butyl) thiazole-5-carboxamide]
0.029 | 0.084 | CC[C@H](CNC(=O)c1scnc1C)C(=O)N[C@@H]1C(=O)N2CCCN2Cc2ccccc21 [Example 29, 4-Methyl-N-((R)-2-(((S)-11-oxo-2,3,10,11-tetrahydro-1H,5H-benzo[d]pyrazolo [1,2-a][1,2]diazepin-10-yl)carbamoyl)butyl) thiazole-5-carboxamide]
0.029 | 0.016 | CCCOc1nc(C)c(C(=O)NC[C@@H](CC)C(=O)N[C@@H]2C(=O)N3CCCN3Cc3ccccc32)s1 [Example 30, 4-Methyl-N-((R)-2-(((S)-11-oxo-2,3,10,11-tetrahydro-1H,5H-benzo[d]pyrazolo [1,2-a][1,2]diazepin-10-yl)carbamoyl)butyl)-2-propoxythiazole-5-carboxamide]
0.033 | 0.022 | CC[C@H](CNC(=O)c1c(C)noc1C(F)(F)F)C(=O)N[C@@H]1C(=O)N2CC3(CC3)CN2C(=O)c2ccccc21 [Example 31, N-((R)-2-(((S)-5,11-Dioxo-10,11-dihydro-1H,3H,5H-spiro[benzo[d]pyr-azolo[1,2-a][1,2]diazepine-2,1′-cyclopropan]-10-yl)carbamoyl)butyl)-3-methyl-5-(trifluoromethyl) isoxazole-4-carboxamide]
0.043 | 0.05 | CC[C@H](CNC(=O)c1sc(-c2ccc(OC)nc2)nc1Cl)C(=O)N[C@@H]1C(=O)N2CCCN2C(=O)c2ccccc21 [Example 34, 4-Chloro-N-((R)-2-(((S)-5,11-dioxo-2,3,10,11-tetrahydro-1H,5H-benzo[d]pyrazolo [1,2-a][1,2]diazepin-10-yl)carbamoyl)butyl)-2-(6-methoxypyridin-3-yl)thiazole-5-carboxamide]
0.045 | 0.034 | CC[C@H](CNC(=O)c1sncc1C)C(=O)N[C@@H]1C(=O)N2CCCN2C(=O)c2ccccc21 [Example 35, N-((R)-2-(((S)-5,11-Dioxo-2,3,10,11-tetrahydro-1H,5H-benzo[d]pyrazolo [1,2-a][1,2]diazepin-10-yl)carbamoyl)butyl)-4-methylisothiazole-5-carboxamide]
0.045 | 0.034 | CCc1nnsc1C(=O)NC[C@@H](CC)C(=O)N[C@@H]1C(=O)N2CC3(CC3)CN2C(=O)c2ccccc21 [Example 36, N-((R)-2-(((S)-5,11-Dioxo-10,11-dihydro-1H,3H,5H-spiro[benzo[d]pyr-azolo[1,2-a][1,2]diazepine-2,1′-cyclopropan]-10-yl)carbamoyl)butyl)-4-ethyl-1,2,3-thiadiazole-5-carboxamide]
0.053 | 0.032 | CC[C@H](CNC(=O)c1sc(-c2ccc(OC(F)F)nc2)nc1Cl)C(=O)N[C@@H]1C(=O)N2CCCN2C(=O)c2ccccc21 [Example 37, 4-Chloro-2-(6-(difluoromethoxy)pyridin-3-yl)-N-((R)-2-(((S)-5,11-dioxo-2,3,10,11-tetrahydro-1H,5H-benzo[d]pyrazolo [1,2-a][1,2]diazepin-10-yl)carbamoyl)butyl) thiazole-5-carboxamide]
0.054 | 0.043 | Cc1nc(-c2ccc(C(F)(F)F)nc2)sc1C(=O)NC[C@H](C(=O)N[C@@H]1C(=O)N2CCCN2C(=O)c2ccccc21)C(F)(F)F [Example 38, N-((R)-2-(((S)-5,11-Dioxo-2,3,10,11-tetrahydro-1H,5H-benzo[d]pyrazolo [1,2-a][1,2]diazepin-10-yl)carbamoyl)-3,3,3-trifluoropropyl)-4-methyl-2-(6-(trifluoromethyl)pyridin-3-yl)thiazole-5-carboxamide]
0.054 | 0.024 | CC[C@H](CNC(=O)c1scnc1Cl)C(=O)N[C@@H]1C(=O)N2CCCN2Cc2ccccc21 [Example 39, 4-Chloro-N-((R)-2-(((S)-11-oxo-2,3,10,11-tetrahydro-1H,5H-benzo[d]pyrazolo [1,2-a][1,2]diazepin-10-yl)carbamoyl)butyl) thiazole-5-carboxamide]
